Laboratory results reported in patent publication US20090081157A1, “Immunostimulatory Combinations for Vaccine Adjuvants” (priority 2006, published 2009).

Assays:
B16-F10 tumors = test: Peritumoral immunotherapy of established B16-F10 melanoma tumors; assay type: in vivo, C57BL/6 mice; settings: figure legends
Description: BALB/c mice were injected with 1×10^6 A 20 tumor cells s.c. and […] mice were injected with 1×10^6 B16-F10 tumor cells s.c. After a palpable tumor appeared (>4 mm), 50 μl PBS or plasmid DNA (50 μg) with or without TLR agonist molecules was injected into and around the tumors every other day×5. Tumors were measured every other day.
[…] mice were injected with 1×10^6 B16-F10 tumor cells s.c. After a palpable tumor appeared (>4 mm), 50 μl PBS or plasmid DNA (50 μg) with or without TLR agonist, in the presence or absence of cationic polymer (JetPEI™ Qbiogene Irvine, Calif.) molecules, was injected into and around the tumors every other day×5. Tumors were measured every other day.
Methods: B16-F10 melanoma cells were cultured in RPMI 1640 with 10% fetal bovine serum. Cells were detached with trypsin-EDTA and washed in phosphate-buffered saline (PBS). Then, 10E5 cells in 100 ul PBS were injected subcutaneously over the abdomen of female C57BL/6 female mice, 6- to 9-weeks old (Jackson Laboratories). […]
ATPγS, a nonhydrolyzable form of ATP was added to various agonists (pSP-D-CD40L+CpG+poly(I:C)+ATPe) and the combination was injected intratumorally in to mice presenting established B16F1 melanomas. […] Tumor size was measured every other day and plotted as the product of two orthogonal diameters (i.e., “tumor area”). […]

[1] = intravenous infusion, humans with non-small cell lung cancer; cited from earlier work

With “polyriboinosinic-polyribocytidylic acid [Poly I:C]” the “synergy with CD40L against established B16-F10 tumors” value (B16-F10 tumors) was “synergizes with CD40L”.

In the case of `Nc1ncnc2c1ncn2[C@@H]1O[C@H](COP(=O)(O)OP(=O)(O)OP(=O)(O)O)[C@@H](O)[C@H]1O` [ATP, adenosine 5′-triphosphate], the maximum tolerated dose [1] is given as 50 ug/kg per minute.
